The values that follow are results of earlier work, collected in patent US20060280700A1, “Oral hygiene system to fight the effects of aging on the mouth, gums, and teeth” (priority 2005, published 2006).

Data set [1] relates to oral squamous carcinoma cells. The note with it: for inhibition in growth of oral squamous carcinoma cells: in culture.
The subject of the next data set is Streptococcus mutants. Conditions: rodent model inoculated with Streptococcus mutants.

As for `O=C(O[C@@H]1Cc2c(O)cc(O)cc2O[C@H]1c1ccc(O)c(O)c1)c1cc(O)c(O)c(O)c1` [(−)-catechin gallate], in the data set on Pophyromonas proteinases, the “inhibition of the activity of Pophyromonas proteinases” value is reported as “significantly inhibited”.
With `Oc1cc(O)c2c(c1)O[C@H](c1cc(O)c(O)c(O)c1)[C@H](O)C2` [EGC, (−) epigauocatechin], in data set [1], the “inhibition of DNA synthesis” value is “dose-dependent inhibition” and the “inhibition in growth of oral squamous carcinoma cells” value (shortened to “inhibition in growth”) is given as “significant dose dependent inhibition”.
Turning to `O=C(O[C@@H]1Cc2c(O)cc(O)cc2O[C@@H]1c1cc(O)c(O)c(O)c1)c1cc(O)c(O)c(O)c1` [EGCG, (−)-epigallocatechin-3-gallate], the “inhibition of the activity of Pophyromonas proteinases” value in the data set on Pophyromonas proteinases is “significantly inhibited”. Besides, in data set [1], the “inhibition of DNA synthesis” value is “dose-dependent inhibition” and the “inhibition in growth” value is reported as “significant dose dependent inhibition”.
For `OC[C@@H](O)[C@H](O)[C@@H](O)CO` [Xylitol], the cariogenic action result in the data set on Streptococcus mutants is “little or no cariogenic action”.
With (−)-epicatechin-3-gallate [ECG], the “inhibition of the activity of Pophyromonas proteinases” value in the data set with Pophyromonas proteinases is “significantly inhibited”. Moreover, in data set [1], the “inhibition of DNA synthesis” value was “dose-dependent inhibition” and the “inhibition in growth” value is reported as “significant dose dependent inhibition”.
In the case of (−)-gallocatechin gallate, in the data set on Pophyromonas proteinases, the “inhibition of the activity of Pophyromonas proteinases” value was “significantly inhibited”.
